Measured values from ChEMBL document CHEMBL6071148, “Synthesis and biological evaluation of novel 3,6- amide and thioamide substituted- 2,3,4,9-tetrahydro-1H-carbazoles for anti-cancer activity” (Eur J Med Chem, 2024).
Activity calls are given as the source filed them. The rule behind the calls is not given here.

How the values were obtained:
MCF7 [1] = assay: Cytotoxicity against human MCF7 cells assessed as inhibition of cell proliferation incubated for 72 hrs by MTT assay; assay type: functional, cell-based; conditions: MCF7, 72 h
A549 [2] = assay: Cytotoxicity against human A549 cells assessed as inhibition of cell proliferation incubated for 72 hrs by MTT assay; assay type: functional, cell-based; conditions: A549, 72 h
HCT-116 [3] = assay: Cytotoxicity against human HCT-116 cells assessed as inhibition of cell proliferation incubated for 72 hrs by MTT assay; assay type: functional, cell-based; conditions: HCT-116, 72 h
[4] = Cytotoxicity against human MRC5 cells assessed as inhibition of cell proliferation incubated for 72 hrs by MTT assay; assay type: toxicity, cell-based
MCF7 [5] = assay: Inhibition of colony formation in human MCF7 cells assessed as reduction in clonogenic capacity incubated for 24 hrs by crystal violet staining based analysis; assay type: functional, cell-based
HCT-116 [6] = assay: Inhibition of colony formation in human HCT-116 cells assessed as reduction in clonogenic capacity incubated for 24 hrs by crystal violet staining based analysis; assay type: functional, cell-based
A549 [7] = assay: Inhibition of colony formation in human A549 cells assessed as reduction in clonogenic capacity incubated for 24 hrs by crystal violet staining based analysis; assay type: functional, cell-based
A549 [8] = assay: Inhibition of cell adhesion in human A549 cells assessed as reduction in cell aggregates formation at IC50 incubated for 48 hrs by inverted phase contrast microscopic analysis; assay type: functional, cell-based
HCT-116 [9] = assay: Inhibition of cell adhesion in human HCT-116 cells assessed as reduction in cell aggregates formation at IC50 incubated for 48 hrs by inverted phase contrast microscopic analysis; assay type: functional, cell-based
A549 [10] = assay: Induction of cell cycle arrest in human A549 cells assessed as accumulation of cells at S phase at IC50 incubated for 24 hrs by PI staining based flow cytometric analysis (reference value: 39.41 +/- 2.54%); assay type: functional
A549 [11] = assay: Induction of cell cycle arrest in human A549 cells assessed as accumulation of cells at G1 phase at IC50 incubated for 48 hrs by PI staining based flow cytometric analysis (reference value: 53.5 +/- 4.01%); assay type: functional
A549 [12] = assay: Induction of cell cycle arrest in human A549 cells assessed as accumulation of cells at G2 phase at IC50 incubated for 48 hrs by PI staining based flow cytometric analysis (reference value: 38.15 +/- 1.80%); assay type: functional
HCT-116 [13] = assay: Induction of cell cycle arrest in human HCT-116 cells assessed as accumulation of cells at G1 phase at IC50 incubated for 24 hrs by PI staining based flow cytometric analysis relative to control; assay type: functional
HCT-116 [14] = assay: Induction of cell cycle arrest in human HCT-116 cells assessed as accumulation of cells at G2 phase at IC50 incubated for 24 hrs by PI staining based flow cytometric analysis relative to control; assay type: functional
HCT-116 [15] = assay: Induction of cell cycle arrest in human HCT-116 cells assessed as accumulation of cells at G1 phase at IC50 incubated for 48 hrs by PI staining based flow cytometric analysis relative to control; assay type: functional
HCT-116 [16] = assay: Induction of cell cycle arrest in human HCT-116 cells assessed as accumulation of cells at S phase at IC50 incubated for 48 hrs by PI staining based flow cytometric analysis; assay type: functional
HCT-116 [17] = assay: Induction of DNA damage in human HCT-116 cells assessed as gammaH2AX positive cells at IC50 incubated for 48 hrs by PI staining based flow cytometric analysis (reference value: 6.24 +/- 1.94%); assay type: functional
Mitochondrial membrane [18] = assay: Induction of mitochondrial membrane depolarization in human A549 cells assessed as decrease in ratio of J-aggregates to J-monomer incubated for 24 hrs by JC-1 staining based flow cytometric analysis (reference value: 17.72 +/- 3.94%); assay type: cell membranes
Mitochondrial membrane [19] = assay: Induction of mitochondrial membrane depolarization in human HCT-116 cells assessed as increase in mitochondrial fission by measuring appearance of shortened mitochondria by confocal microscopic analysis; assay type: cell membranes
Mitochondrial membrane [20] = assay: Induction of mitochondrial membrane depolarization in human HCT-116 cells assessed as increase in mitochondrial fission by measuring appearance of spherical mitochondria by confocal microscopic analysis; assay type: cell membranes
Mitochondrial membrane [21] = assay: Induction of mitochondrial membrane depolarization in human HCT-116 cells assessed as increase in mitochondrial fission by measuring appearance of circular mitochondria by confocal microscopic analysis; assay type: cell membranes
Mitochondrial membrane [22] = assay: Disruption of mitochondrial membrane integrity in human HCT-116 cells assessed as change in mitochondrial size by TEM analysis; assay type: cell membranes
Mitochondrial membrane [23] = assay: Disruption of mitochondrial membrane integrity in human HCT-116 cells assessed as change in mitochondrial shape by TEM analysis; assay type: cell membranes
Mitochondrial membrane [24] = assay: Disruption of mitochondrial membrane integrity in human HCT-116 cells assessed as change in mitochondrial internal organization by TEM analysis; assay type: cell membranes
Mitochondrial membrane [25] = assay: Disruption of mitochondrial membrane integrity in human HCT-116 cells assessed as mitochondrial swelling by TEM analysis; assay type: cell membranes
Mitochondrial membrane [26] = assay: Disruption of mitochondrial membrane integrity in human HCT-116 cells assessed as disruption of normal mitochondrial distribution by TEM analysis; assay type: cell membranes
Mitochondrial membrane [27] = assay: Disruption of mitochondrial membrane integrity in human HCT-116 cells assessed as organization of mtDNA nucleoids within cells by TEM analysis; assay type: cell membranes
Mitochondrial membrane [28] = assay: Disruption of mitochondrial membrane integrity in human HCT-116 cells assessed as presence of large mitochondria by TEM analysis; assay type: cell membranes
Mitochondrial membrane [29] = assay: Disruption of mitochondrial membrane integrity in human HCT-116 cells assessed as presence of bloated mitochondria by TEM analysis; assay type: cell membranes
Mitochondrial membrane [30] = assay: Disruption of mitochondrial membrane integrity in human HCT-116 cells assessed as absence of well-developed cristae by TEM analysis; assay type: cell membranes
A549 [31] = assay: Induction of apoptosis in human A549 cells assessed as apoptotic rate at IC50 incubated for 24 hrs by Annexin-V and 7-AAD staining based flow cytometric analysis (reference value: 4.56 +/- 0.81%); assay type: functional
A549 [32] = assay: Induction of apoptosis in human A549 cells assessed as apoptotic rate at IC50 incubated for 48 hrs by Annexin-V and 7-AAD staining based flow cytometric analysis (reference value: 6.56 +/- 1.17%); assay type: functional
HCT-116 [33] = assay: Induction of apoptosis in human HCT-116 cells assessed as increase in apoptotic cells incubated for 24 hrs by Annexin-V and 7-AAD staining based flow cytometric analysis (reference value: 8.10 +/- 2.16%); assay type: functional
HCT-116 [34] = assay: Induction of apoptosis in human HCT-116 cells assessed as increase in apoptotic cells incubated for 48 hrs by Annexin-V and 7-AAD staining based flow cytometric analysis (reference value: 6.82 +/- 1.05%); assay type: functional
[35] = Toxicity in chicken embryo chorioallantoic membrane at nanomolar concentration measured at day 6 by Kaplan Mayer survival analysis; assay type: tissue-based, Gallus gallus; conditions: in vivo
[36] = Toxicity in chicken embryo chorioallantoic membrane assessed as survival rate at 1.5 uM measured at day 6 by Kaplan Mayer survival analysis relative to control; assay type: tissue-based, Gallus gallus
[37] = Toxicity in chicken embryo chorioallantoic membrane assessed as survival rate at 4.5 uM measured at day 6 by Kaplan Mayer survival analysis relative to control; assay type: tissue-based, Gallus gallus
A549 [38] = assay: Induction of DNA damage in human A549 cells assessed as increase in gammaH2AX positive cells at IC50 incubated for 48 hrs by PI staining based flow cytometric analysis; assay type: functional, cell-based
Mitochondrial membrane [39] = assay: Disruption of mitochondrial membrane potential in human HCT-116 cells assessed as translocation of cytochrome c to cytoplasm at IC50 incubated for 48 hrs by confocal microscopic analysis; assay type: cell membranes

## CC(=S)NC1CCc2[nH]c3ccc(OC(F)(F)F)cc3c2C1 (centres undefined)
MCF7 [1]
  IC50: 31 µM
A549 [2]
  IC50: 25.7 µM
HCT-116 [3]
  IC50: 23.6 µM
[4]
  IC50 at 72 h: > 50 µM
MCF7 [5]
  inhibition: Dose-Dependent Effect
HCT-116 [6]
  inhibition: Dose-Dependent Effect
A549 [7]
  inhibition: Dose-Dependent Effect
A549 [8]
  inhibition: Active
HCT-116 [9]
  inhibition: Active
A549 [10]
  Activity: 15.45%
A549 [11]
  Activity: 53.35%
A549 [12]
  Activity: 46.75%
HCT-116 [13]
  Activity: 16.95%
HCT-116 [14]
  Activity: 17.95%
HCT-116 [15]
  Activity: 31.15%
HCT-116 [16]
  Activity: 18.9%
HCT-116 [17]
  Activity: 14.63%
Mitochondrial membrane [18]
  Activity: 16.9
Mitochondrial membrane [19]
  Activity: Active
Mitochondrial membrane [20]
  Activity: Active
Mitochondrial membrane [21]
  Activity: Active
Mitochondrial membrane [22]
  Activity: Active
Mitochondrial membrane [23]
  Activity: Active
Mitochondrial membrane [24]
  Activity: Active
Mitochondrial membrane [25]
  Activity: Active
Mitochondrial membrane [26]
  Activity: Active
Mitochondrial membrane [27]
  Activity: Active
Mitochondrial membrane [28]
  Activity: Active
Mitochondrial membrane [29]
  Activity: Active
Mitochondrial membrane [30]
  Activity: Active
A549 [31]
  Activity: 16.64%
A549 [32]
  Activity: 27.97%
HCT-116 [33]
  Activity: 17.5%
HCT-116 [34]
  Activity: 45.03%
[35]
  Activity: Non-Toxic
[36]
  survival at 1.5 µM: 70%
[37]
  survival at 4.5 µM: 70%
A549 [38]
  Activity: Active
Mitochondrial membrane [39]
  Activity: Active
